Measured values from patent US20230190887A1, “TARGETING G3BP AGGREGATION TO PREVENT NEURODEGENERATION” (priority 2019, published 2023).
“Also recorded” adds a separate entry of the source. Like-named read-outs stand apart in the source and are kept apart here.

Experiments:
[1] = tested on: DRG neurons; assay: Axon growth in dissociated DRG cultures; format: cell-based, rat; details: 10 μM Tat-fused peptide added to DRG cultures immediately after plating
Experimental: Cell culture. For primary neuronal cultures, L4-5 DRG were harvested in Hybernate-A medium (BrainBits) and then dissociated as described. After centrifugation and washing in DMEM/F12 (Life Technologies), cells were resuspended in DMEM/F12, 1×N1 supplement (Sigma), 10% fetal bovine serum (Hyclone), and 10 μM cytosine arabinoside (Sigma). Dissociated DRGs were plated immediately on laminin/poly-L-lysine-coated coverslips or transfected (see below) and then plated on coated coverslips.
[…] Neurite outgrowth was assessed 24 h after addition of peptides. For the cortical cultures, 10 μM peptide was applied to the axonal compartment at 3 d in vitro (DIV) and axonal growth was assessed at 6 DIV. For iMotor neurons, 20 μM peptides were immediately added and neurite growth was assessed 24 h later.
For neurite outgrowth, images from 60 h DRG cultures were analyzed for neurite outgrowth using WIS-Neuromath. Axon morphology was visualized using GFP and/or NF immunofluorescence as described. Differentiated hiPSC neuron image acquisition and neurite length quantification was performed using Arrayscan XTI (Thermo Fisher).

[2] = tested on: wild-type or ALS/FTD-associated mutant (P362L, A381T, E384K) TIA1-GFP in HEK cells; assay: TIA1-GFP aggregates in arsenite-treated HEK cells; format: cell-based
Excerpt: The inventors tested whether the G3BP1 190-208 peptide would prevent the aggregation of granules formed by TIA1 and TDP43 mutant proteins associated with ALS and FTD. […] Next, we treated HEK cells expressing wild-type and or ALS/FTD-associated mutants (P362L, A381T, or E384K)TIA1, with arsenite a potent inducer of SG aggregation, in addition to either G3BP1 190-208 peptide or control G3BP1 168-189 peptide.
FIG. 5: Cell permeable G3BP1 190-208 peptide decreases TIA1-GFP puncta formed due to expression of disease causing TIA1 mutants. (A) Representative images of HEK cells transfected with GFP-tagged wild-type or ALS/FTD-associated mutants (P362L, A381T, or E384K) TIA1. Arrows show TIA1-GFP puncta. (B) Quantification of the percentage of cells with TIA1-GFP puncta greater than 2 μm^2 area in transfected cells relative TIA1-WT-GFP expressing cells. Consistent with previous studies, ALS/FTD- associated TIA1 mutants show increased number of TIA1-GFP puncta as compared to WT-TIA1. (C) HEK cells expressing TIA1-GFP or ALS/FTD-associated mutants TIA1-P362L, TIA1-A381T, TIA1-E384K were treated with sodium arsenite (0.5 mM) for 30 minutes followed by treatment with either 10 μM 190-208 G3BP1 or 168-189 control peptide. The number of cells containing TIA1-GFP puncta were measured and results are reported relative to non-treated controls. Number of HEK cells with TIA1-GFP granules both for WT and ALS/FTD mutants decreased after treatment with 10 μM 190-208 G3BP1 as compared to the 168-189 control peptide treated cells. (N≥90 over 3 cultures; by two-way ANOVA with Tukey HSD post-hoc). Scale bar: 20 μm.

[3] = tested on: TIA1, G3BP1 and TDP43 granules in E12.5 motor neurons; assay: Stress granule protein granules in neurites of arsenite-treated motor neurons; format: cell-based, mouse
Excerpt: To further evaluate whether mutant TIA1 and TDP43 protein aggregates are affected by G3BP1 190-208 peptide, the inventors expressed the mutant proteins in embryonic motor neurons and assessed granules formed in neurites with or without arsenite treatment either in the presence of G3BP1 190-208 or control 168-189 peptide.
FIG. 6: Cell permeable G3BP1 190-208 peptide decreases granules formed by endogenous TIA1 and TDP43 and exogenous TDP43 and TIA1 mutants in motor neurons after sodium arsenite exposure. (A) Embryonic motor neurons isolated from E12.5 mouse embryos were exposed to sodium arsenite (0.5 mM) for 30 minutes and then treated with 10 μM 190- 208 or […] peptide. After fixation endogenous TIA1 was visualized by immunostaining. The number of TIA1 granules greater than 2 μm^2 per 100 μm of neurite were measured. (B) E12.5 motor neurons were treated as described in (A) and immunostaining was used to detect endogenous G3BP1 protein. The number of G3BP1 granules greater than 2 μm^2 per 100 μm of neurite were measured. […] (C) E12.5 motor neurons expressing TIA1-GFT or ALS/FTD-associated mutants TIA1-A381T, TIA1-E384K were treated with sodium arsenite (0.5 mM) for 30 minutes followed by treatment with either 10 μM 190-208 G3BP1 or 168-189 control peptide. The number of cells containing TIA1-GFP puncta were measured 2 μm^2 per 100 μm of neurite and results are reported relative to non-treated controls. The number of TIA1-GFP granules in neurites decreased for WT and ALS/FTD mutants after treatment with 190-208 G3BP1 as compared to the 168-189 control peptide treated cells. (I)) E12.5 motor neurons expressing flag-tagged wildtype TDP43 or ALS-associated mutants TDP43-M337V and TDP43-Q331.K were treated with sodium arsenite (0.5 mM) for 30 minutes followed by treatment with either 10 μM 190-208 G3BP1 or 168189 control peptide. Flag-TDP43 was detected by immunostaining using the anti-flag-antibody. The number of flag-TDP43 granules greater than 2 μm^2 were measured per 100 μm of neurite and the results are reported relative to non-treated controls. The number of Flag-TDP43 granules in neurites were decreased after treatment with 190-208 G3BP1 peptide as compared to the 168-189 control peptide in both WT and ALS/FTD mutants expressing cells. ([…] over 3 cultures; by two-way ANOVA with Tukey HSD post-hoc),

[4] = tested on: MN axons; format: cell-based, mouse
[5] = tested on: HB9::GFP MN axons; format: cell-based, mouse
[6] = molecular target: DCP1A, endogenous rat protein in axons of cultured adult DRG neurons (rat) (UniProt D4AE80); assay: proximity ligation assay in axons of fixed rat DRG neurons
[7] = molecular target: HuR (ELAVL1), endogenous rat protein in axons of cultured adult DRG neurons (rat) (UniProt B5DF91); assay: as above
[8] = tested on: G3BP1-mCherry aggregates in DRG axons; assay: Live cell imaging of G3BP1-mCherry granules; format: cell-based, rat; details: 10 μM peptide, 15 min
Experimental: Live cell imaging for G3BP1-mCherry granules. DRG neurons were transfected with G3BP1-mCherry, and 36 h later distal axons were imaged using Leica SP8X confocal microscope with environmental chamber maintained at 37° C., 5% CO2 (with 63×/1.4 NA oil immersion objective). G3BP1-mCherry signals were imaged as single optical planes in the axon shaft every 2 s for 100 frames (at 540 nm excitation and 23% white light laser power; 565-597 nm emission). To study the effect of the G3BP1 190-208 or 168-189 peptide, 10 μM FITC-conjugated peptide was added to the media and 15 min later imaging was continued.
For quantitation of G3BP1-mCherry aggregates density and size, a 100 μm of the axon shaft was considered (≥200 μm from cell body). Thresholding was applied to acquired image sequences using ImageJ to generate binary masks.
ImageJ particle analyzer was used for analysis. G3BP1 aggregates with area≥1 μm^2 were considered as SG-like structures. For analyzing the G3BP1 aggregate velocity, ImageJ Trackmate plug-in was used.

[9] = tested on: G3BP1 aggregates in E12.5 motor neurons; assay: Endogenous G3BP1 aggregates in MPP+-treated motor neurons; format: cell-based, mouse; details: 100 μM MPP+ alone vs control
Experimental: Previous studies have shown that, exposure of midbrain neurons results in formation of stress granules. To test whether treatment of motor neurons with mitotoxin MPP+ results in the formation of stress granules the inventors stained the MPP+-treated neurons for G3BP1 protein.
(A) Quantification of mitotoxin/neurotoxin MPP+-induced degeneration of DIV7 E12.5 motor neuron neurites after exposure of cultures to 100 μM MPP+ and either 10 μM 190-208 G3BP1 or 168-189 control peptide. As controls, neurons treated with solvents were used. (B) Representative images of G3BP1 (green) and NF-labeled (red) E12.5 motor neurons under control or after treatment with 100 μM MPP+ [scale bar=10 μm]. (C) distribution of sizes of endogenous G3BP1 aggregate per 100 μm neurite is shown as indicated bins from motor neurons cultures as treated in (B). (N≥80 neurites over three repetitions; by one-way ANOVA with Tukey HSD post-hoc). […] (D) Endogenous G3BP1 aggregate sizes per 100 μm neurite indicated as bins for motor neurons either untreated or treated with MPP+ alone or with addition of 10 μM 190-208 G3BP1 or 168-189 control peptide. […] (N≥90 over 3 cultures; by one-way ANOVA with Tukey HSD post-hoc)

[10] = tested on: G3BP1 aggregates in midbrain neurons; assay: Endogenous G3BP1 aggregates in MPP+-treated midbrain neurons; format: cell-based, rat; details: MPP+ alone
Excerpt: Given that the G3BP1 190-208 peptide prevents degeneration induced by treatment with neurotoxins such as MPP+ and Aβ oligomer and decreases G3BP1 aggregates formed due MPP+ and Aβ treatment.
(A) Size of endogenous G3BP1 aggregates per 100 μm of neurite is shown as indicated bins from midbrain cultures under control conditions and after treatment with MPP+alone or with 190-208 G3BP1 or 168-189 peptides. (B) Size distribution of endogenous G3BP1 aggregates per 100 μm of neurite is shown from cortical neurons treated with 1 μM Aβpeptide or with […] 190-208 G3BP1 or 168-189 control peptide. Non-treated neurons were used as a control. […] (N≥90 over 3 cultures; by two-way ANOVA with Tukey HSD post-hoc).

[11] = tested on: G3BP1, TIA1, FMRP, FXR, TDP43 and FUS-TLS aggregates in E18 midbrain neurons; assay: RNA binding protein aggregates along axons of MPP+-treated midbrain neurons; format: cell-based, rat; details: 100 μM MPP+ 6 hours
Experimental: FIGS. 14A-14F show PD-causing MPP^+ increases RNA binding protein aggregation. Representative confocal images for G3BP1 (magenta), FMRP (green), FXR (red) and neurofilament immunoreactivity along axons for E18 midbrain neuron cultures (7 DIV)±100 μM MPP^+ for 6 hours are shown in FIG. 14A. […] Quantifications for colocalization of FMRP, FXR, TDP43, FUS-TLS and TIA1 with G3BP1 in axons of E18 midbrain neurons treated. as in FIG. 14A are shown as average Pearson's coefficient±SEM shown in FIG. 14E.

[12] = applied exclusively in axons, NaAsO2 250 μM, Anisomycin 40 μM, Cycloheximide 150 μM
[13] = local axonal administration, Anisomycin 40 μM, Cycloheximide 150 μM, NaAsO2 250 μM

HuR (ELAVL1), endogenous rat protein in axons of cultured adult DRG neurons (rat), sequence (B5DF91 2-326): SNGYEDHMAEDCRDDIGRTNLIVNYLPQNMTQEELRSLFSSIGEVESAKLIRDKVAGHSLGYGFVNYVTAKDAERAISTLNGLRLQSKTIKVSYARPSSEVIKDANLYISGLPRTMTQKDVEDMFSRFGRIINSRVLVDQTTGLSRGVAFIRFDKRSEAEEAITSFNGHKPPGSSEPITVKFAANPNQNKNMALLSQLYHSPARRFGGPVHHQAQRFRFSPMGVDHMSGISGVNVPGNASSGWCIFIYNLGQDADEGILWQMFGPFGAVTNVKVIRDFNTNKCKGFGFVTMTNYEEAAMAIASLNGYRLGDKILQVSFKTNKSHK

EESEEEVEEPEENQQSPEVV-YGNKKNNQNNN (EESEEEVEEPEENQQSPEVVYGNKKNNQNNN; listed as Rattus norvegicus) [147-166, cell-permeable Tat fusion peptide corresponding to residues 147-166 of rat G3BP1]
axon length [1]: increased axon length

sodium arsenite [NaAsO2, reference compound]
size of TIA1 aggregates ([2]; sodium arsenite 0.5 mM alone, WT and mutants): increases size of TIA1 aggregates
size of endogenous TIA1 and G3BP1 aggregates ([3]; arsenite alone): increase in the size of endogenous TIA1 and G3BP1 aggregates
number of larger TIA1-GFP granules (>2 μm^2) ([3]; arsenite alone, WT and mutant TIA1-GFP): increase in the number of larger granules
number of large flag-TDP43 aggregates (>2 μm^2) ([3]; arsenite alone, WT and mutant flag-TDP43): increased number of large flag-TDP43 aggregates
axonal translation (OPP puncta) [4]: major decrease in axonal translation
mitochondrial membrane potential (TMRE) [5]: notable reduction in mitochondrial membrane potential

C[C@@H]1C[C@@H]([C@H](O)CC2CC(=O)NC(=O)C2)C(=O)[C@@H](C)C1 [Cycloheximide]
axonal translation (OPP puncta) [4, 12]: major decrease in axonal translation
mitochondrial membrane potential (TMRE) [5, 13]: notable reduction in mitochondrial membrane potential

G3BP1 (Ras GAP SH3 domain binding protein 1), endogenous rat protein in axons of cultured adult DRG neurons (from UniProt D3ZYS7 1-465)
PLA signals per area [6]: 0.027 signals/m^2
PLA signals per area [7]: 0.038

DDSGTFYDQTVSNDLEEHLEEP-YGNKKNNQNNN [168-189 peptide, reference compound]
size of TIA1 aggregates ([2]; sodium arsenite 0.5 mM 30 minutes, then 10 μM peptide, WT and mutant TIA1): no such change in aggregate size
number of large TIA1-GFP granules (>2 μm^2) in neurites ([3]; WT and mutant TIA1-GFP, sodium arsenite 0.5 mM 30 minutes, then 10 μM peptide): no such effect
axon length [1]: lacked activity
density of axonal G3BP1-mCherry aggregates along 100 μm axon [8]: no change in SG density
size of G3BP1-mCherry aggregates (SG-like structures) [8]: modest but insignificant decrease in SG size

C[n+]1ccc(-c2ccccc2)cc1 [MPP+, 1-methyl-4-phenylpyridinium, reference compound]
endogenous G3BP1 aggregates [9]: increase in G3BP1 aggregates; also recorded: formation of larger G3BP1 granules
endogenous G3BP1 aggregates [10]: increase in endogenous G3BP1 aggregates
TIA1, FMRP, FXR, TDP43 and FUS-TLS colocalization with G3BP1 [11]: significant increase
aggregate sizes of G3BP1, TIA1, FMRP, FXR, TDP43 and FUS-TLS along axons [11]: significantly increases the aggregate sizes
overall levels of these proteins [11]: without any change in overall levels

COc1ccc(C[C@H]2NC[C@H](O)[C@H]2OC(C)=O)cc1 [Anisomycin]
axonal translation (OPP puncta) [4, 12]: major decrease in axonal translation
mitochondrial membrane potential (TMRE) [5, 13]: notable reduction in mitochondrial membrane potential
